According to paper PMC6629894, “Ruthenium Complexes Containing Heterocyclic Thioamidates Trigger Caspase-Mediated Apoptosis Through MAPK Signaling in Human Hepatocellular Carcinoma Cells” (Frontiers in Oncology, 2019):

System: HepG2 cells
Assay: DNA content: internucleosomal DNA fragmentation and cell cycle distribution by flow cytometry
Format: cell-based, human
Conditions: 24 and 48 h
Protocol: For all subsequent in vitro experiments, 2 mL of a suspension of HepG2 cells were seeded (7 × 10^4 cells/mL) and incubated in a 24-well plate overnight to allow the cells to adhere to the plate surface.
In this assay, cells were harvested in a permeabilization solution containing 0.1% Triton X-100, 2 μg/mL propidium iodide, 0.1% sodium citrate and 100 μg/mL RNAse (all from Sigma-Aldrich Co.) and incubated in the dark for 15 min at room temperature.
For all flow cytometry analyses, at least 10^4 events were recorded per sample using a BD LSRFortessa cytometer, BD FACSDiva Software (BD Biosciences) and FlowJo Software 10 (FlowJo Lcc; Ashland, OR, USA). Cellular debris was omitted from the analysis.

## COc1cccc2c1C(=O)c1c(O)c3c(c(O)c1C2=O)C[C@@](O)(C(=O)CO)C[C@@H]3O[C@H]1C[C@H](N)[C@H](O)[C@H](C)O1 [Doxorubicin, reference compound]
2 μM
  cell cycle distribution: cell cycle arrest at the G2/M phase
  internucleosomal DNA fragmentation (sub-G0/G1): DNA fragmentation
